US9814727B2, “Piperazine phenothiazine derivatives for treating spasticity” (UNIVERSITE D'AIX-MARSEILLE, priority 2014, dated 2017)

Assays:
KCC2 = test: FluxOR fluorescence based thallium (Tl+) influx assay on KCC2-expressing HEK293 cells; type: cell-based; details: for effect on KCC2 activity, normalized to the maximal effect obtained with compound 1: 30 μM, HEK KCC2 cells, 15 minutes incubation
Protocol: Wild-type or KCC2-expressing Human Embryonic Kidney (HEK) 293 cells (provided by Prof. Eric Delpire Department of Anesthesiology, Vanderbilt University Medical Center, Nashville, Tenn.) were grown up to 80-90% confluence in DMEM/Ham's F-12 (1:1) (Life technologies, Carlsbad, Calif., USA) supplemented with 10% FBS (Life technologies), 50 units/mL penicillin, and 50 µg/mL streptomycin (Life technologies). KCC2-expressing clones were under puromycin selection (20 μg/ml, Life technologies).
The FluxOR™ potassium ion channel assay (Life Technologies Carlsbad, Calif., USA) was performed as outlined in the product information sheet and an earlier published study (Delpire et al., 2009, Proc. Natl. Acad. Sci. USA, 106, 5383-88) to assess KCC2 activity, and adapted to semi-automated high throughput screening. The experiment was performed in the presence of ouabain 200 μM and bumetanide 10 μM in all buffers to block the Na^+/K^+ pump and NKCC1 cotransporters, respectively. Briefly, cells in suspension were incubated in the loading buffer containing the dye at room temperature for 90 min (1/2000 dilution of FluxOR reagent) at the density of 100.000 cells/75 μl, then centrifugated and resuspended in Assay buffer at the same cell density. A number of 100.000 cells (75 μl) were manually handled in each well to the 96-wells black-walled, μclear-bottom plates (Greiner Bio-One, Monroe, N.C., USA) and 5 μl of chemical compounds 1-8 at different concentrations in PBS 1% DMSO (5, 30 and 50 μM) were added to the plates using the Biomek® NX Laboratory automation workstation (Beckman Coulter, Villepinte, France). After 15 minutes incubation, baseline fluorescent signal was measured with the Polarstar omega microplate reader (490 nm excitation and 520 nm emission, BMG Labtech). Then 20 μL per well of 5× thallium stimulus buffer (final concentrations: Tl^+: 2 mM, K^+: 10 mM) was injected and fluorescent signal was read 30 minutes later.
For each plate, 2 columns were dedicated to controls (cell density range from 0.25 to 1.10^5 cells; loading buffer as blank; untreated or treated with NEM (33 μM, for 15 min) wild-type and KCC2-expressing HEK293 cells).
Baseline fluorescent value was subtracted from the fluorescent value measured 30 min after stimulus buffer injection for each well, and this difference was normalized to the number of cells. […] Values converted to percentages such that the maximum of ratio is 100%.

HEK cells = test: PrestoBlue cell viability assay (cytotoxicity); type: cell-based, Human; details: 30 μM
Protocol: Cytotoxicity were evaluated with fluorescent viability assay on HEK cells lines incubated 1 h with several concentrations of drugs. TC50: Toxic Concentration for 50% of the population.
After stimulus buffer induced signal acquisition, PrestoBlue® Cell Viability Reagent (Life technologies), a cell permeable resazurin-based solution was used according to manufacturer procedure as a cell viability indicator (Excitation/Emission (nm): 535-560/590-615).

SMILES	effect on KCC2 activity, normalized to the maximal effect obtained with compound 1 (KCC2) [%]	specific activation of KCC2 across a dose range (KCC2; HEK KCC2 compared to WT HEK cells, non-cytotoxic dose range)	cytotoxicity (HEK cells)
OCCN1CCN(CCCN2c3ccccc3Sc3ccc(Cl)cc32)CC1 [compound 1, 2-[4-[3-(2-chloro-10H-phenothiazin-10-yl)propyl]piperazin-1-yl]ethanol]	100	activate specifically KCC2 in a dose dependant manner	–
CCSc1ccc2c(c1)N(CCCN1CCN(C)CC1)c1ccccc1S2 [compound 8, 2-(ethylthio)-10-[3-(4-methylpiperazin-1-yl)propyl]-10H-phenothiazine]	–	–	cytotoxic
CN1CCN(CCCN2c3ccccc3Sc3ccccc32)CC1 [compound 7, 10-[3-(4-methylpiperazin-1-yl)propyl]-10H-phenothiazine]	55	–	–
